Test results reported in patent publication US10815230B2, “Casein kinase 1 delta inhibitor” (ELECTROPHORETICS LIMITED, priority 2015, dated 2020).

Key:
MSK1/RPS6KA5 = MSK1/RPS6KA5 (Homo sapiens, UniProt O75582); assay: Kinase selectivity, % remaining activity; assay type: biochemical; conditions: 10 μM compound, 10 μM ATP, duplicate; for remaining activity at 10 µM: read-out: % of remaining activity (relative to DMSO)
Summary of the method: (§1)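 First-tier selectivity panel: a single 10 μM concentration tested twice, ATP held at 10 μM, data reported as residual activity relative to DMSO.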

ROCK1 = ROCK1 (Homo sapiens, UniProt Q13464); assay: Kinase selectivity, % remaining activity; assay type: biochemical; conditions: 10 μM compound, 10 μM ATP, duplicate; for remaining activity at 10 µM: read-out: % of remaining activity (relative to DMSO)
Summary of the method: as §1

TNIK = TNIK (Homo sapiens, UniProt Q9UKE5); assay: Kinase selectivity, % remaining activity; assay type: biochemical; conditions: 10 μM compound, 10 μM ATP, duplicate; for remaining activity at 10 µM: read-out: % of remaining activity (relative to DMSO)
Summary of the method: as §1

CK1g3 = CK1g3 (Homo sapiens, UniProt Q9Y6M4); assay: Kinase selectivity, % remaining activity; assay type: biochemical; conditions: 10 μM compound, 10 μM ATP, duplicate; for remaining activity at 10 µM: read-out: % of remaining activity (relative to DMSO)
Summary of the method: as §1

ALK5/TGFBR1 = biological target: T1, ALK5/TGFBR1 (Homo sapiens, UniProt P36897); assay: Kinase selectivity, % remaining activity; assay type: biochemical; conditions: 10 μM compound, 10 μM ATP, duplicate; for remaining activity at 10 µM: read-out: % of remaining activity (relative to DMSO)
T1 sequence (P36897 34-503): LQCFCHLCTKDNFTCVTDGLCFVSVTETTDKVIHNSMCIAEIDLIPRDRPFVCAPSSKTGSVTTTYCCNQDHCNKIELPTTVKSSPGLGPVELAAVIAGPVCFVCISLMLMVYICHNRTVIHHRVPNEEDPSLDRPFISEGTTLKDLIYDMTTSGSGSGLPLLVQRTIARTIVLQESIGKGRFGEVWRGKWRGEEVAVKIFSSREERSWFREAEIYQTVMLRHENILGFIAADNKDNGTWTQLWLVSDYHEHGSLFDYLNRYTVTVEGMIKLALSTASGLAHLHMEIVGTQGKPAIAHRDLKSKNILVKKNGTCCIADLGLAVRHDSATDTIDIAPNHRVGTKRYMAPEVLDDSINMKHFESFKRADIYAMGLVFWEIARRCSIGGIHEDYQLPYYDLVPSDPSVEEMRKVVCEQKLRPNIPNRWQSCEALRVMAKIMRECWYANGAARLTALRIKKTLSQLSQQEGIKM
Summary of the method: as §1

GSK3B [1] = biological target: T2, GSK3B (Homo sapiens, UniProt P49841); assay: Kinase selectivity, % remaining activity; assay type: biochemical; conditions: 10 μM compound, 10 μM ATP, duplicate; for remaining activity at 10 µM: read-out: % of remaining activity (relative to DMSO)
Summary of the method: as §1

FGFR1 = FGFR1 (Homo sapiens, UniProt P11362); assay: Kinase selectivity, % remaining activity; assay type: biochemical; conditions: 10 μM compound, 10 μM ATP, duplicate; for remaining activity at 10 µM: read-out: % of remaining activity (relative to DMSO)
Summary of the method: as §1

P38a/MAPK14 = P38a/MAPK14 (Homo sapiens, UniProt Q16539); assay: Kinase selectivity, % remaining activity; assay type: biochemical; conditions: 10 μM compound, 10 μM ATP, duplicate; for remaining activity at 10 µM: read-out: % of remaining activity (relative to DMSO)
Summary of the method: as §1

PIM3 = PIM3 (Homo sapiens, UniProt Q86V86); assay: Kinase selectivity, % remaining activity; assay type: biochemical; conditions: 10 μM compound, 10 μM ATP, duplicate; for remaining activity at 10 µM: read-out: % of remaining activity (relative to DMSO)
Summary of the method: as §1

ABL2/ARG = ABL2/ARG (Homo sapiens, UniProt P42684); assay: Kinase selectivity, % remaining activity; assay type: biochemical; conditions: 10 μM compound, 10 μM ATP, duplicate; for remaining activity at 10 µM: read-out: % of remaining activity (relative to DMSO)
Summary of the method: as §1

DAPK1 = DAPK1 (Homo sapiens, UniProt P53355); assay: Kinase selectivity, % remaining activity; assay type: biochemical; conditions: 10 μM compound, 10 μM ATP, duplicate; for remaining activity at 10 µM: read-out: % of remaining activity (relative to DMSO)
Summary of the method: as §1

CLK2 = CLK2 (Homo sapiens, UniProt P49760); assay: Kinase selectivity, % remaining activity; assay type: biochemical; conditions: 10 μM compound, 10 μM ATP, duplicate; for remaining activity at 10 µM: read-out: % of remaining activity (relative to DMSO)
Summary of the method: as §1

CDK5/p25 = CDK5/p25 (Homo sapiens, UniProt Q00535); assay: Kinase selectivity, % remaining activity; assay type: biochemical; conditions: 10 μM compound, 10 μM ATP, duplicate; for remaining activity at 10 µM: read-out: % of remaining activity (relative to DMSO)
Summary of the method: as §1

GSK3B [2] = biological target: T2, GSK3B; assay: KINOMEscan binding assay; conditions: read-out: % Ctrl @ 10000 nM
ALK (L1196M) = ALK (L1196M) (Homo sapiens, UniProt Q9UM73, L1196M); assay: KINOMEscan binding assay; conditions: read-out: % Ctrl @ 10000 nM
SRPK2 = SRPK2 (Homo sapiens, UniProt P78362); assay: KINOMEscan binding assay; conditions: read-out: % Ctrl @ 10000 nM
PAK1 = PAK1 (Homo sapiens, UniProt Q13153); assay: KINOMEscan binding assay; conditions: read-out: % Ctrl @ 10000 nM
CSF1R-autoinhibited = CSF1R-autoinhibited (Homo sapiens, UniProt P07333); assay: KINOMEscan binding assay; conditions: read-out: % Ctrl @ 10000 nM
PHKG1 = PHKG1 (Homo sapiens, UniProt Q16816); assay: KINOMEscan binding assay; conditions: read-out: % Ctrl @ 10000 nM
DMPK = DMPK (Homo sapiens, UniProt Q09013); assay: KINOMEscan binding assay; conditions: read-out: % Ctrl @ 10000 nM
MST3 = MST3 (Homo sapiens, UniProt Q9Y6E0); assay: KINOMEscan binding assay; conditions: read-out: % Ctrl @ 10000 nM
NEK11 = NEK11 (Homo sapiens, UniProt Q8NG66); assay: KINOMEscan binding assay; conditions: read-out: % Ctrl @ 10000 nM
MYLK4 = MYLK4 (Homo sapiens, UniProt Q86YV6); assay: KINOMEscan binding assay; conditions: read-out: % Ctrl @ 10000 nM
[3] = biological target: ABL1 (F317L) phosphorylated (Homo sapiens, UniProt P00519, F317L); assay: KINOMEscan binding assay; conditions: read-out: % Ctrl @ 10000 nM
MEK2 = MEK2 (Homo sapiens, UniProt P36507); assay: KINOMEscan binding assay; conditions: read-out: % Ctrl @ 10000 nM
SGK2 = SGK2 (Homo sapiens, UniProt Q9HBY8); assay: KINOMEscan binding assay; conditions: read-out: % Ctrl @ 10000 nM
MARK1 = MARK1 (Homo sapiens, UniProt Q9P0L2); assay: KINOMEscan binding assay; conditions: read-out: % Ctrl @ 10000 nM
PIK3CA (H1047Y) = PIK3CA (H1047Y) (Homo sapiens, UniProt P42336, H1047Y); assay: KINOMEscan binding assay; conditions: read-out: % Ctrl @ 10000 nM
STK39 = STK39 (Homo sapiens, UniProt Q9UEW8); assay: KINOMEscan binding assay; conditions: read-out: % Ctrl @ 10000 nM
FGFR3 (G697C) = FGFR3 (G697C) (Homo sapiens, UniProt P22607, G697C); assay: KINOMEscan binding assay; conditions: read-out: % Ctrl @ 10000 nM
PIM2 = PIM2 (Homo sapiens, UniProt Q9P1W9); assay: KINOMEscan binding assay; conditions: read-out: % Ctrl @ 10000 nM

Sequence of CDK5/p25 (Q00535 whole entry, species assumed): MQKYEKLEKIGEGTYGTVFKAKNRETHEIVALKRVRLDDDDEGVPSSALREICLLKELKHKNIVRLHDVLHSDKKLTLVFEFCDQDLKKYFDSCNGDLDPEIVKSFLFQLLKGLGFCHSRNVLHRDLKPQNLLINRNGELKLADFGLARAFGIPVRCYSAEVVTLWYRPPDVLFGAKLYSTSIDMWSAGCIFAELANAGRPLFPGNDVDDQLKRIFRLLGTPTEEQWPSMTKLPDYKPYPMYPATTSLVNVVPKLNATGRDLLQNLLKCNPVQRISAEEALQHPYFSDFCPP
Sequence of P38a/MAPK14 (Q16539 whole entry): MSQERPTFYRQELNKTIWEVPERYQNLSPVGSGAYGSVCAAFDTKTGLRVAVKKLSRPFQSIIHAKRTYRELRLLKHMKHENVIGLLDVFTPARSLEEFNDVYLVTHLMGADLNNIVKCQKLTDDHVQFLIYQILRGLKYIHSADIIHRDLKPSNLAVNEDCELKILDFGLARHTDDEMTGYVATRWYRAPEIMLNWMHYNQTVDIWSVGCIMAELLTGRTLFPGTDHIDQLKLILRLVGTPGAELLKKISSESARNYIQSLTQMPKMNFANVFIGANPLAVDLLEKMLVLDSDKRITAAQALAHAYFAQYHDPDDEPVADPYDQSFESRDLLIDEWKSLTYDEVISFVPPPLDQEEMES
Sequence of ROCK1 (Q13464 whole entry): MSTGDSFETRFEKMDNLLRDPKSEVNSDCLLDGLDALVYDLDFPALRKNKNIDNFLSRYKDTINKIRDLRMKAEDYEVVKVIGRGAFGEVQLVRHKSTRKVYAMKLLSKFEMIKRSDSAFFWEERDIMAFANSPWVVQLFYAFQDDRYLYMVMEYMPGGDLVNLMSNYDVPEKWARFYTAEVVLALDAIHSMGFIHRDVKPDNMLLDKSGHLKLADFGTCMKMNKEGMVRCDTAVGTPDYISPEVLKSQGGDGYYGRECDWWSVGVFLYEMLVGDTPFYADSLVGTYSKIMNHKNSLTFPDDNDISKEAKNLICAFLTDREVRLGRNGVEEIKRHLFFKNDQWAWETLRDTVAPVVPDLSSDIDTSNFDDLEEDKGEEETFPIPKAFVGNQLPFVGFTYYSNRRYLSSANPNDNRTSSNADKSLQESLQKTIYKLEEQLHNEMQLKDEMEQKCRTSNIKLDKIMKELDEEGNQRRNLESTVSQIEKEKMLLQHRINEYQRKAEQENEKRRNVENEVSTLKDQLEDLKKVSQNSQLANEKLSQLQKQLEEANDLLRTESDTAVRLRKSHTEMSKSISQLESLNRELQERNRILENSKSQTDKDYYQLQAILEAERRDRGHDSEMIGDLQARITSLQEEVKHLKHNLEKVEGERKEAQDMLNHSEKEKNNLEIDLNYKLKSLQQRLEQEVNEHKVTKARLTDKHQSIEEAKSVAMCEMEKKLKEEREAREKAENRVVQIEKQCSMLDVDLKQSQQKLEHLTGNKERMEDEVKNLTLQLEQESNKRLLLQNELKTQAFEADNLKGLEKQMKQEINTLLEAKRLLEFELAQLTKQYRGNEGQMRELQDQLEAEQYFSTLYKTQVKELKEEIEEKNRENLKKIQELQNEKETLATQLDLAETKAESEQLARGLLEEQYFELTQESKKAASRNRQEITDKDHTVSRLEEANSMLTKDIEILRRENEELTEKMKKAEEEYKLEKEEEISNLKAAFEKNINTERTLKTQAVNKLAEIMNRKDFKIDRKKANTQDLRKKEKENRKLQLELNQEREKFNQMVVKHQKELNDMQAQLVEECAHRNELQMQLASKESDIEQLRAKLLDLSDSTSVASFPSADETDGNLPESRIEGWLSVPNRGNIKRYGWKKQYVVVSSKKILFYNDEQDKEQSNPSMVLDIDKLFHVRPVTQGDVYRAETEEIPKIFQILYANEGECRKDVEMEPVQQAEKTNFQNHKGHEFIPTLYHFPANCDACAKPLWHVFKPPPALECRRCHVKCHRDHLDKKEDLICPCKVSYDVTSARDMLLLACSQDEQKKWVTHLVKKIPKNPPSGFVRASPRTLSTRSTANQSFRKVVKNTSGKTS
Sequence of FGFR1 (P11362 22-822): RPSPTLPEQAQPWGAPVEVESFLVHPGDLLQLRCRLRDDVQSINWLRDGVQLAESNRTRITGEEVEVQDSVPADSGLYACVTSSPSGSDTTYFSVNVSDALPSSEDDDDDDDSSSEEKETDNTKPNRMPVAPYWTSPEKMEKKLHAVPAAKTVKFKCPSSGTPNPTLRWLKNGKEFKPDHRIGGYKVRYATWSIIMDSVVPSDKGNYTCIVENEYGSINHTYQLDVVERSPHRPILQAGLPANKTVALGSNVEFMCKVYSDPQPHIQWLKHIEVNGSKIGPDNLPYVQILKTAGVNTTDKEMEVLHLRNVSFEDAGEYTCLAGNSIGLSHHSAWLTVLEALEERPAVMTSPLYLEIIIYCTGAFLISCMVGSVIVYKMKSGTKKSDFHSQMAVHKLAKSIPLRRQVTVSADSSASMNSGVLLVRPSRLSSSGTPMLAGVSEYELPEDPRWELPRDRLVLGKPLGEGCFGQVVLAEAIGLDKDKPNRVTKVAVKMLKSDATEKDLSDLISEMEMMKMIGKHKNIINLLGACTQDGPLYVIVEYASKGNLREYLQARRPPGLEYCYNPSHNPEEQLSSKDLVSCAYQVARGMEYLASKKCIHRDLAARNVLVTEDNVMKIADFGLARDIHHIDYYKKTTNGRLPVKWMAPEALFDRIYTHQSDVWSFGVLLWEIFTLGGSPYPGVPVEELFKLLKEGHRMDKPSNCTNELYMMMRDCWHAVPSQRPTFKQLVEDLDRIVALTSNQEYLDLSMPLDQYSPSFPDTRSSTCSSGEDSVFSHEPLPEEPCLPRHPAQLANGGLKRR
Sequence of DAPK1 (P53355 whole entry): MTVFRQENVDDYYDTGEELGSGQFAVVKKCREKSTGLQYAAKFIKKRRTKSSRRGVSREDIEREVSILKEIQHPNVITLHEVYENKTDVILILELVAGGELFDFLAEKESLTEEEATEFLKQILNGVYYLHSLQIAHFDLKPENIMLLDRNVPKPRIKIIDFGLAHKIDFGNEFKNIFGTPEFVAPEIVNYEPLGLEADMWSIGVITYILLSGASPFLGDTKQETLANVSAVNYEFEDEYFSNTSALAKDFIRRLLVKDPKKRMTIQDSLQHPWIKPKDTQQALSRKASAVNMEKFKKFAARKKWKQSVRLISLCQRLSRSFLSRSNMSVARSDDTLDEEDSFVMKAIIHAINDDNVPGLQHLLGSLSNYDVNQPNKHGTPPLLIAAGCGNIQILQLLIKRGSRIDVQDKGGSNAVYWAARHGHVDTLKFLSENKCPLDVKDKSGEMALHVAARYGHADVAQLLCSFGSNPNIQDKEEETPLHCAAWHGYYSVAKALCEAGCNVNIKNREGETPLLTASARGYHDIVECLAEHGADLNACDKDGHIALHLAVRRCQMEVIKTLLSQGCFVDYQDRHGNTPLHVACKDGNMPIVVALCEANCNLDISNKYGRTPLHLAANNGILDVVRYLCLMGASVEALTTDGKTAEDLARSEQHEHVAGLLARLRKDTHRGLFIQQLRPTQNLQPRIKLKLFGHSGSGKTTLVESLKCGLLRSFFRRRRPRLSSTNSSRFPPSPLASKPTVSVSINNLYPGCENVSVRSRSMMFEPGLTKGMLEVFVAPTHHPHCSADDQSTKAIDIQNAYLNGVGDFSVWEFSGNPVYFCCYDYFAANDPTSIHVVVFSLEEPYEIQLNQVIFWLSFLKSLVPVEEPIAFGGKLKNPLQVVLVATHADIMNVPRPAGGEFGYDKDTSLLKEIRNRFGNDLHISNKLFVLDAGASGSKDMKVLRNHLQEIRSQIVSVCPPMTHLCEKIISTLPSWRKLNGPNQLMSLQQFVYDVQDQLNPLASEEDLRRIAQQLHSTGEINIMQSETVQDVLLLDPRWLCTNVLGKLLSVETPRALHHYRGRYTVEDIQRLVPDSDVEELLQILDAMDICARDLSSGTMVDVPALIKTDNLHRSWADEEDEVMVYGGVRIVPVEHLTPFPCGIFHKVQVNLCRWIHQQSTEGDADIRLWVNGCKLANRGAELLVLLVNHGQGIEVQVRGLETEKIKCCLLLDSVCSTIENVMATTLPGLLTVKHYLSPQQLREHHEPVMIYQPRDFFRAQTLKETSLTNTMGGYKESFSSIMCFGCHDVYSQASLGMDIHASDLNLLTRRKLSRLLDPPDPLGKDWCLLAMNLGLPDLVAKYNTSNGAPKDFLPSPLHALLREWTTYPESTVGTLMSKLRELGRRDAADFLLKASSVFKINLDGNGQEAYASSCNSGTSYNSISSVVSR
Sequence of MSK1/RPS6KA5 (O75582 whole entry): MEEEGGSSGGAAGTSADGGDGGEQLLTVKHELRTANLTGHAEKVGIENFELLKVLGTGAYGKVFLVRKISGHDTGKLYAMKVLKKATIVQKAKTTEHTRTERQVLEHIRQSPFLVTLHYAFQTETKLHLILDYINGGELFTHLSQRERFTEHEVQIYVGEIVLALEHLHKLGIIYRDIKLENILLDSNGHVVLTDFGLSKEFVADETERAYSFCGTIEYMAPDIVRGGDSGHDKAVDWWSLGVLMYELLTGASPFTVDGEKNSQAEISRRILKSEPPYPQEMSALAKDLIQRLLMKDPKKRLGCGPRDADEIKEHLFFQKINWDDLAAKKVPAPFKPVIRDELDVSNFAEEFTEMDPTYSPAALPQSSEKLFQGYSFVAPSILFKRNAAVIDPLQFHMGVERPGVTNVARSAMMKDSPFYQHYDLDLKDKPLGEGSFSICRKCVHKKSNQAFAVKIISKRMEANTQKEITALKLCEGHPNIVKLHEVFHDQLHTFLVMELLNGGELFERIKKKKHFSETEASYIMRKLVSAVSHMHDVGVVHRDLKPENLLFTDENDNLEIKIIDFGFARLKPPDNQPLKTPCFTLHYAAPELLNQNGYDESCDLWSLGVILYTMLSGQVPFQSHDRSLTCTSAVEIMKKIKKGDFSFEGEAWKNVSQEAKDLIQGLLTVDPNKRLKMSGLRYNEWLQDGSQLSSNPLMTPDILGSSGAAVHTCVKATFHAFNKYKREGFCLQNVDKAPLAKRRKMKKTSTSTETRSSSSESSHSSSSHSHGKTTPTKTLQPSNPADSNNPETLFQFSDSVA

## COc1ccc(C=C2N=C(c3cccs3)OC2=O)cc1 [Comparative Compound 315, 4-((4-methoxyphenyl)methylene)-2-(2-thienyl)-5(4H)-oxalone]
MSK1/RPS6KA5; listed as Cmp 315
  % of remaining activity (relative to DMSO): 118.15%
MSK1/RPS6KA5
  remaining activity at 10 µM: 117%
ROCK1; listed as Cmp 315
  % of remaining activity (relative to DMSO): 90.20%
ROCK1
  remaining activity at 10 µM: 93.4%
TNIK; listed as Cmp 315
  % of remaining activity (relative to DMSO): 101.11%
TNIK
  remaining activity at 10 µM: 101%
CK1g3; listed as Cmp 315
  % of remaining activity (relative to DMSO): 2.99%
CK1g3
  remaining activity at 10 µM: 2.9%
ALK5/TGFBR1; listed as Cmp 315
  % of remaining activity (relative to DMSO): 110.31%
ALK5/TGFBR1
  remaining activity at 10 µM: 107%
GSK3B [1]; listed as Cmp 315
  % of remaining activity (relative to DMSO): 115.26%
GSK3B [1]
  remaining activity at 10 µM: 120%
FGFR1; listed as Cmp 315
  % of remaining activity (relative to DMSO): 101.65%
FGFR1
  remaining activity at 10 µM: 102%
P38a/MAPK14; listed as Cmp 315
  % of remaining activity (relative to DMSO): 107.03%
P38a/MAPK14
  remaining activity at 10 µM: 105%
PIM3; listed as Cmp 315
  % of remaining activity (relative to DMSO): 57.54%
PIM3
  remaining activity at 10 µM: 60.6%
ABL2/ARG; listed as Cmp 315
  % of remaining activity (relative to DMSO): 89.19%
ABL2/ARG
  remaining activity at 10 µM: 83.4%
DAPK1; listed as Cmp 315
  % of remaining activity (relative to DMSO): 90.84%
DAPK1
  remaining activity at 10 µM: 96%
CLK2; listed as Cmp 315
  % of remaining activity (relative to DMSO): 48.99%
CLK2
  remaining activity at 10 µM: 50.6%
CDK5/p25; listed as Cmp 315
  % of remaining activity (relative to DMSO): 94.86%
CDK5/p25
  remaining activity at 10 µM: 96.1%

## Nc1ncc(-c2nc3ccccc3o2)c(-c2ccncc2)n1 [Comparative Compound 324, 5-(1,3-benzoxazol-2-yl)-4-(pyridine-4-yl)pyrimidin-2-amine]
GSK3B [2]
  remaining binding at 10 µM: 95%
ALK (L1196M)
  remaining binding at 10 µM: 100%
SRPK2
  remaining binding at 10 µM: 100%
PAK1
  remaining binding at 10 µM: 75%
CSF1R-autoinhibited
  remaining binding at 10 µM: 70%
PHKG1
  remaining binding at 10 µM: 100%
DMPK
  remaining binding at 10 µM: 100%
MST3
  remaining binding at 10 µM: 98%
NEK11
  remaining binding at 10 µM: 86%
MYLK4
  remaining binding at 10 µM: 98%
[3]
  remaining binding at 10 µM: 75%
MEK2
  remaining binding at 10 µM: 82%
SGK2
  remaining binding at 10 µM: 100%
MARK1
  remaining binding at 10 µM: 100%
PIK3CA (H1047Y)
  remaining binding at 10 µM: 72%
STK39
  remaining binding at 10 µM: 100%
MSK1/RPS6KA5; listed as Cmp 324
  % of remaining activity (relative to DMSO): 94.78%
MSK1/RPS6KA5
  remaining activity at 10 µM: 81.1%
ROCK1; listed as Cmp 324
  % of remaining activity (relative to DMSO): 109.68%
ROCK1
  remaining activity at 10 µM: 109%
TNIK; listed as Cmp 324
  % of remaining activity (relative to DMSO): 65.72%
TNIK
  remaining activity at 10 µM: 74.6%
CK1g3; listed as Cmp 324
  % of remaining activity (relative to DMSO): 62.63%
CK1g3
  remaining activity at 10 µM: 69.9%
ALK5/TGFBR1; listed as Cmp 324
  % of remaining activity (relative to DMSO): 101.71%
ALK5/TGFBR1
  remaining activity at 10 µM: 105%
GSK3B [1]; listed as Cmp 324
  % of remaining activity (relative to DMSO): 80.19%
GSK3B [1]
  remaining activity at 10 µM: 91.3%
FGFR1; listed as Cmp 324
  % of remaining activity (relative to DMSO): 108.45%
FGFR1
  remaining activity at 10 µM: 104%
P38a/MAPK14; listed as Cmp 324
  % of remaining activity (relative to DMSO): 48.46%
P38a/MAPK14
  remaining activity at 10 µM: 53.9%
PIM3; listed as Cmp 324
  % of remaining activity (relative to DMSO): 95.35%
PIM3
  remaining activity at 10 µM: 100%
ABL2/ARG; listed as Cmp 324
  % of remaining activity (relative to DMSO): 96.78%
ABL2/ARG
  remaining activity at 10 µM: 101%
CLK2; listed as Cmp 324
  % of remaining activity (relative to DMSO): 92.16%
CLK2
  remaining activity at 10 µM: 96.2%
CDK5/p25; listed as Cmp 324
  % of remaining activity (relative to DMSO): 97.13%
CDK5/p25
  remaining activity at 10 µM: 87.7%
FGFR3 (G697C)
  remaining binding at 10 µM: 76%
PIM2
  remaining binding at 10 µM: 98%

## Nc1ncnc2c1c(COc1cccc(Cl)c1)nn2C1CCOCC1 [PF4800567, 3-[(3-Chlorophenoxy)methyl]-1-(tetrahydro-2H-pyran-4-yl)-1H-pyrazolo[3,4-d]pyrimidin-4-amine]
MSK1/RPS6KA5
  remaining activity at 10 µM: 104%
ROCK1
  remaining activity at 10 µM: 95.2%
TNIK
  remaining activity at 10 µM: 89.7%
CK1g3
  remaining activity at 10 µM: 88.9%
ALK5/TGFBR1
  remaining activity at 10 µM: 105%
GSK3B [1]
  remaining activity at 10 µM: 114%
FGFR1
  remaining activity at 10 µM: 80.8%
P38a/MAPK14
  remaining activity at 10 µM: 71.2%
PIM3
  remaining activity at 10 µM: 116%
ABL2/ARG
  remaining activity at 10 µM: 68.4%
DAPK1
  remaining activity at 10 µM: 92.5%
CLK2
  remaining activity at 10 µM: 105%
CDK5/p25
  remaining activity at 10 µM: 97.7%
